The record followed here is US20240158393A1, “PYRIDONE COMPOUNDS AND METHODS OF USE” (Exelixis, Inc., priority 2021, published 2024).

One assay deals with T1, Human KDR (Homo sapiens, UniProt P35968).
T1 construct: Human KDR (residues K790-V1356, 55 nM); purchased Eurofins Pharma Discovery Services UK Limited (KinaseProfiler, B-1) and/or CarnaBio (B-2)
Briefly: Human KDR kinase assay (33P radiometric / HTRF KinEase). It counts as biochemical. Particulars: protocols of Examples B-1 and/or B-2. In a few lines:
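Radiometric: KDR K790-V1356 (55 nM), MOPS pH 7.0, myelin basic protein, 10 μM [γ-33P]ATP, 40 min at room temperature, filter-bound 33P counted; nine half-log doses, top 1 μM. HTRF: KDR 790-1356, 1 μM biotinylated peptide, ATP at Km (4.0 μM), 40 min, 10 doses. IC50 from logistic fits.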
(Time-resolved FRET reads energy transfer from a long-lived donor to a nearby acceptor.)

For a further assay, the target named is T2, Human Met (Homo sapiens, UniProt P08581).
T2 construct: Human MET (residues 956-1390)
Briefly: Human Met kinase assay (33P radiometric / HTRF KinEase). Format: biochemical. The following applies: protocols of Examples D-1 and/or D-2; read-out: c-Met IC50. In a few lines:
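Two formats gave IC50s by curve fitting. HTRF KinEase used MET residues 956-1390 with 1 μM biotin-peptide and 3.0 μM ATP (Km) for 40 min at room temperature, ten doses in 3% DMSO, 665/620 nm read. The 33P transfer assay used mutant Met R974-S1390 A1209G/V1290L (3.4 nM), 10 μM ATP, 250 μM peptide, pH 7.0, 40 min, nine doses from 1 μM.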

Structures are written as SMILES. pIC50: −log10 of the molar value. Some results are limits rather than exact numbers.

T2 sequence (P08581 974-1390 limits assumed): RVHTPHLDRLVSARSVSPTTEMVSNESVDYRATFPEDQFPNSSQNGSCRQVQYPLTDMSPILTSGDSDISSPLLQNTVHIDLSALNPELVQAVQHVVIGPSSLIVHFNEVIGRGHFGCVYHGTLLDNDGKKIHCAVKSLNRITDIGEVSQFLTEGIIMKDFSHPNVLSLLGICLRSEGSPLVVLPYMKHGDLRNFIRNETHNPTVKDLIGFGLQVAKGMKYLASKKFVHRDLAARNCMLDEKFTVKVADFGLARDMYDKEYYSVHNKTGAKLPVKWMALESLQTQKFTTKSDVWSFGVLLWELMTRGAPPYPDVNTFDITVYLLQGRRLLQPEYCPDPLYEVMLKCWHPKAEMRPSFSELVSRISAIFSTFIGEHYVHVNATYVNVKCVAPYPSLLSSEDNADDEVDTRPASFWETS
T1 sequence (P35968 790-1356): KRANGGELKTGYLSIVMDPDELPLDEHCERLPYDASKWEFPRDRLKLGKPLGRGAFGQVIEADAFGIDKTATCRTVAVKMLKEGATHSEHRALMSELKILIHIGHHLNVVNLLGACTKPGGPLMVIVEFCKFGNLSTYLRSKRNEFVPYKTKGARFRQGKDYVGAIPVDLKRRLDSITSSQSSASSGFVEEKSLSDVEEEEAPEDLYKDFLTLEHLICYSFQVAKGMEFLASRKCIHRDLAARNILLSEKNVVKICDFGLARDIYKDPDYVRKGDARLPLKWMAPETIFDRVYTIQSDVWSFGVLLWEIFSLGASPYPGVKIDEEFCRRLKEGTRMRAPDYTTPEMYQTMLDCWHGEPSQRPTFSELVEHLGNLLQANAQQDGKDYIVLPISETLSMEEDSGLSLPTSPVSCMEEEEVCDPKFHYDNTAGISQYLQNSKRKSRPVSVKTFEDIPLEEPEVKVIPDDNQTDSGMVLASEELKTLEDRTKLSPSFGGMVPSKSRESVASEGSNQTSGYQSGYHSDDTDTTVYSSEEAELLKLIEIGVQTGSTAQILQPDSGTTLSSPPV

For orientation: pIC50 means the IC50 on a negative log10 scale, so that one unit is a factor of ten. `COc1cnc2c(Oc3ccc(NC(=O)c4c(C)nc(C)c(C(N)=O)c4O)cc3F)ccnc2c1` [Compound 91, 3-N-[3-Fluoro-4-[(7-methoxy-1,5-naphthyridin-4-yl)oxy]phenyl]-4-hydroxy-2,6-dimethylpyridine-3,5-dicarboxamide]: the pIC50 against Human KDR and at Human Met was less than 6.52 throughout.

Take `COc1cc2nccc(Oc3ccc(NC(=O)c4cnc(C)c(C5=CCOCC5)c4O)cc3)c2cc1OC` [Compound 17, 5-(3,6-Dihydro-2H-pyran-4-yl)-N-[4-(6,7-dimethoxyquinolin-4-yl)oxyphenyl]-4-hydroxy-6-methylpyridine-3-carboxamide]: the pIC50 against Human KDR and at Human Met was no less than 7.00 in each case.

Regarding `COc1ccc2nccc(Oc3ccc(NC(=O)c4cnc(C)c(C5=CCOCC5)c4O)cc3F)c2n1` [Compound 1-5, 5-(3,6-Dihydro-2H-pyran-4-yl)-N-[3-fluoro-4-[(6-methoxy-1,5-naphthyridin-4-yl)oxy]phenyl]-4-hydroxy-6-methylpyridine-3-carboxamide], the pIC50 is no less than 7.00 on Human KDR and less than 6.52 at Human Met.

With `COc1cc2nccc(Oc3ccc(NC(=O)c4c5n(c(C)c(C6=CCCCC6)c4=O)CCOC5)cc3)c2nc1OC` [Compound 100, 7-(Cyclohexen-1-yl)-N-[4-[(6,7-dimethoxy-1,5-naphthyridin-4-yl)oxy]phenyl]-6-methyl-8-oxo-3,4-dihydro-1H-pyrido[2,1-c][1,4]oxazine-9-carboxamide], the pIC50 at Human KDR is less than 6.52; at Human Met it was no less than 7.00.

`COc1cc2nccc(Oc3ccc(NC(=O)c4cn(CCF)c(C)c(C5CCCC5)c4=O)cc3F)c2nc1OC` [Compound 13, 5-Cyclopentyl-N-[4-[(6,7-dimethoxy-1,5-naphthyridin-4-yl)oxy]-3-fluorophenyl]-1-(2-fluoroethyl)-6-methyl-4-oxopyridine-3-carboxamide]: the pIC50 at Human KDR and at Human Met was no less than 7.00 each time.

Regarding `COc1cc2nccc(Oc3ccc(NC(=O)c4c(C)n(C)c(C)c(C#N)c4=O)cc3)c2nc1OC` [Compound 82, 5-Cyano-N-[4-[(6,7-dimethoxy-1,5-naphthyridin-4-yl)oxy]phenyl]-1,2,6-trimethyl-4-oxopyridine-3-carboxamide], the pIC50 against Human KDR and at Human Met was less than 6.52 in each case.

Regarding `COCCOc1cc2nccc(Oc3ccc(NC(=O)c4c(C)n(C)c(C)c(/C=C/C(C)(C)C)c4=O)cc3F)c2nc1OC` [Compound 45, 5-[(E)-3,3-Dimethylbut-1-enyl]-N-[3-fluoro-4-[[6-methoxy-7-(2-methoxyethoxy)-1,5-naphthyridin-4-yl]oxy]phenyl]-1,2,6-trimethyl-4-oxopyridine-3-carboxamide], the pIC50 on Human KDR and on Human Met was no less than 7.00 each time.

For `COCCOc1cc2nccc(Oc3ccc(NC(=O)c4c(O)c(C5=CCOCC5)c(C)[n+](C)c4C)cc3F)c2nc1OC` [Compound 44, 5-(3,6-Dihydro-2H-pyran-4-yl)-N-[3-fluoro-4-[[6-methoxy-7-(2-methoxyethoxy)-1,5-naphthyridin-4-yl]oxy]phenyl]-1,2,6-trimethyl-4-oxopyridine-3-carboxamide], the pIC50 at Human KDR was 6.52 to 7.00; on Human Met, no less than 7.00.

Regarding `COc1cc2nccc(Oc3ccc(NC(=O)c4cnc(C)c(C5=CCOCC5)c4O)cc3F)c2nc1OC` [Compound 1-3, 5-(3,6-Dihydro-2H-pyran-4-yl)-N-[4-[(6,7-dimethoxy-1,5-naphthyridin-4-yl)oxy]-3-fluorophenyl]-4-hydroxy-6-methylpyridine-3-carboxamide], the pIC50 against Human KDR and at Human Met was no less than 7.00 in each case.

Turning to `COc1cc2nccc(Oc3ccc(NC(=O)c4cnc(C)c(C5=CCCCC5)c4O)cc3F)c2cc1OC` [Compound 23, 5-(Cyclohexen-1-yl)-N-[4-(6,7-dimethoxyquinolin-4-yl)oxy-3-fluorophenyl]-4-hydroxy-6-methylpyridine-3-carboxamide], the pIC50 on Human KDR and on Human Met was no less than 7.00 in each case.

Regarding `COc1cc2nccc(Oc3ccc(NC(=O)c4cn(C)c(C)c(C5=CCCC5)c4=O)cc3F)c2nc1OC` [Compound 1, 5-(Cyclopenten-1-yl)-N-[4-[(6,7-dimethoxy-1,5-naphthyridin-4-yl)oxy]-3-fluorophenyl]-1,6-dimethyl-4-oxopyridine-3-carboxamide], the pIC50 against Human KDR and on Human Met was no less than 7.00 in each case.

For `COc1cc2nccc(Oc3ccc(NC(=O)c4c(C)cc(C)n(C5CCCC5)c4=O)cc3F)c2nc1OC` [Compound 15, 1-Cyclopentyl-N-[4-[(6,7-dimethoxy-1,5-naphthyridin-4-yl)oxy]-3-fluorophenyl]-4,6-dimethyl-2-oxopyridine-3-carboxamide], the pIC50 on Human KDR and on Human Met was no less than 7.00 each time.

In the case of `COc1cc2nccc(Oc3ccc(NC(=O)c4c(C)nc(C)c(C(N)=O)c4O)cc3F)c2nc1OC` [Compound 84, 3-N-[4-[(6,7-Dimethoxy-1,5-naphthyridin-4-yl)oxy]-3-fluorophenyl]-4-hydroxy-2,6-dimethylpyridine-3,5-dicarboxamide], the pIC50 against Human KDR and at Human Met was less than 6.52 each time.

For `COCCOc1cc2nccc(Oc3ccc(NC(=O)c4cnc(C)c(C5=CCCC5)c4O)cc3F)c2nc1OC` [Compound 33, 5-(Cyclopenten-1-yl)-N-[3-fluoro-4-[[6-methoxy-7-(2-methoxyethoxy)-1,5-naphthyridin-4-yl]oxy]phenyl]-4-hydroxy-6-methylpyridine-3-carboxamide], the pIC50 at Human KDR and at Human Met was no less than 7.00 throughout.

With `COc1cc2nccc(Oc3ccc(NC(=O)c4cnc(C)c(C5=CCOCC5)c4O)cc3F)c2cc1OC` [Compound 19, 5-(3,6-Dihydro-2H-pyran-4-yl)-N-[4-(6,7-dimethoxyquinolin-4-yl)oxy-3-fluorophenyl]-4-hydroxy-6-methylpyridine-3-carboxamide], the pIC50 against Human KDR and at Human Met was no less than 7.00 in each case.
